# In patent publication US12497666B2, “Nucleic acid biomarker and use thereof” (Daiichi Sankyo Co., Ltd., priority 2013, dated 2025):
# Read-outs that look alike come from different tables or passages of the source.
# Tests used:
# Stage IIIb/IV NSCLC [1] = conditions: for On-Study Death / Primary Cause of On-Study Death: Adverse Event / Primary Cause of On-Study Death: Disease Progression / Primary Reason for Discontinuing Study Treatment: Death / Primary Reason for Discontinuing Study Treatment: Progressive Disease (Radiographic Progression): Enrolled/Randomized set; for disease control rate / objective response (CR or PR): HRG high
# Description: (§1) In both portions of the study, subjects received 150 mg of erlotinib orally once daily. […] Tumors were to be assessed every 6 weeks (±3 days) up to the first 24 weeks of the study, then every 12 weeks (+7 days) independent of treatment cycle.
# All efficacy analyses were performed on the full analysis set, which includes all subjects in the randomized analysis set who received at least one dose of randomized study medication. The primary efficacy endpoint was PFS. PFS is defined as the time from the date of randomization to the earlier of the dates of the first objective documentation of radiographic disease progression or death due to any cause. A subject who was alive with no Objective documentation of (radiographic) disease progression by the data cut-off date was to be censored at the date of the last evaluable tumor assessment. The key secondary efficacy endpoint, overall survival, was defined as the time from the date of randomization to death due to any cause and was analyzed in the same manner as the primary efficacy endpoint PFS.
# Kaplan-Meier curves were generated for PFS and used to calculate medians and 95% CIs for each treatment group. […] Cox's proportional hazards model.
# The stratification factors included histology (Adenocarcinoma vs Non-Adenocarcinoma) and best response to prior therapy (CR/PR/SD vs PD).
# Unless otherwise indicated, log-rank p-values and HRs for PFS and OS were based on the primary analysis adjusted for the stratification factors at randomization as described above.
# Stage IIIb/IV NSCLC [2] = system: Stage IIIb/IV NSCLC
# Description: as §1
# Subjects were also administered 150 mg/day erlotinib during the phase 2 trial.
# [3] = 18 mg/kg patritumab + erlotinib
# [4] = Full Analysis Set, 9 mg/kg patritumab + erlotinib
# [5] = Full Analysis Set, 18 mg/kg patritumab + erlotinib
# [6] = Full Analysis Set, Kaplan-Meier, 9 mg/kg patritumab + erlotinib
# [7] = Full Analysis Set, Kaplan-Meier, 18 mg/kg patritumab + erlotinib
# [8] = HRG high (dCt<3.9), 9 mg/kg patritumab + erlotinib
# [9] = HRG high (dCt<3.9), 18 mg/kg patritumab + erlotinib
# [10] = HRG high (dCt<3.9), patritumab doses combined + erlotinib
# [11] = HRG high and EGFR wild type, 9 mg/kg patritumab + erlotinib
# [12] = HRG high and EGFR wild type, 18 mg/kg patritumab + erlotinib
# [13] = HRG high and EGFR wild type, patritumab doses combined + erlotinib
# [14] = HRG low, 9 mg/kg patritumab + erlotinib
# [15] = HRG low, 18 mg/kg patritumab + erlotinib
# [16] = HRG low, patritumab doses combined + erlotinib
substance,measurement,setting,value
"patritumab + erlotinib: combination of 150 mg erlotinib daily and anti-HER3 antibody patritumab IV every 3 weeks (18 mg/kg, or 18 mg/kg loading with 9 mg/kg maintenance)",HR (pooled dose vs placebo) for PFS in the HRG high group,Stage IIIb/IV NSCLC [1]; Cut-off for delta Ct 2.7 (first quartile),0.180
same,HR (pooled dose vs placebo) for PFS in the HRG high group,Stage IIIb/IV NSCLC [1]; Cut-off for delta Ct 3.0,0.177
same,HR (pooled dose vs placebo) for PFS in the HRG high group,Stage IIIb/IV NSCLC [1]; Cut-off for delta Ct 3.5,0.283
same,HR (pooled dose vs placebo) for PFS in the HRG high group,Stage IIIb/IV NSCLC [1]; Cut-off for delta Ct 3.9 (median),0.324
same,HR (pooled dose vs placebo) for PFS in the HRG high group,Stage IIIb/IV NSCLC [1]; Cut-off for delta Ct 4.5,0.490
same,HR (pooled dose vs placebo) for PFS in the HRG high group,Stage IIIb/IV NSCLC [1]; Cut-off for delta Ct 5.0 (third quartile),0.561
same,On-Study Death,Stage IIIb/IV NSCLC [1]; 9 mg/kg patritumab + erlotinib,9 (12.5%) subjects (%)
same,Primary Cause of On-Study Death: Adverse Event,Stage IIIb/IV NSCLC [1]; 9 mg/kg patritumab + erlotinib,4 (5.6%) subjects (%)
same,Primary Cause of On-Study Death: Disease Progression,Stage IIIb/IV NSCLC [1]; 9 mg/kg patritumab + erlotinib,4 (5.6%) subjects (%)
same,Primary Reason for Discontinuing Study Treatment: Death,Stage IIIb/IV NSCLC [1]; 9 mg/kg patritumab + erlotinib,2 (2.8%) subjects (%)
same,Primary Reason for Discontinuing Study Treatment: Progressive Disease (Radiographic Progression),Stage IIIb/IV NSCLC [1]; 9 mg/kg patritumab + erlotinib,45 (62.5%) subjects (%)
same,On-Study Death,Stage IIIb/IV NSCLC [1]; [3],20 (27.8%) subjects (%)
same,Primary Cause of On-Study Death: Adverse Event,Stage IIIb/IV NSCLC [1]; [3],11 (15.3%) subjects (%)
same,Primary Cause of On-Study Death: Disease Progression,Stage IIIb/IV NSCLC [1]; [3],8 (11.1%) subjects (%)
same,Primary Reason for Discontinuing Study Treatment: Death,Stage IIIb/IV NSCLC [1]; [3],11 (15.3%) subjects (%)
same,Primary Reason for Discontinuing Study Treatment: Progressive Disease (Radiographic Progression),Stage IIIb/IV NSCLC [1]; [3],42 (58.3%) subjects (%)
same,"Subjects (%) with events, OS",Stage IIIb/IV NSCLC [1]; [4],46 (64.8%) subjects (%)
same,"Subjects (%) with events, PFS",Stage IIIb/IV NSCLC [1]; [4],52 (73.2%) subjects (%)
same,"Subjects (%) with events, OS",Stage IIIb/IV NSCLC [1]; [5],54 (77.1%) subjects (%)
same,"Subjects (%) with events, PFS",Stage IIIb/IV NSCLC [1]; [5],58 (82.9%) subjects (%)
same,"Overall Survival, time to event, Median",Stage IIIb/IV NSCLC [1]; [6],6.3 months
same,"Progression-Free Survival, time to event, Median",Stage IIIb/IV NSCLC [1]; [6],2.5 months
same,"Overall Survival, time to event, Median",Stage IIIb/IV NSCLC [1]; [7],5.3 months
same,"Progression-Free Survival, time to event, Median",Stage IIIb/IV NSCLC [1]; [7],1.4 months
same,number of subjects with the response being CP/PR,"Stage IIIb/IV NSCLC [1]; Full Analysis Set, high-dose patritumab + erlotinib",5 (7.1%) subjects (%)
same,number of subjects with the response being CP/PR,"Stage IIIb/IV NSCLC [1]; Full Analysis Set, low-dose patritumab + erlotinib",9 (12.9%) subjects (%)
same,OS Rate at 1 Year (%),Stage IIIb/IV NSCLC [1]; [8],49.2%
same,OS Rate at 6 Months (%),Stage IIIb/IV NSCLC [1]; [8],68.8%
same,OS Rate at 9 Months (%),Stage IIIb/IV NSCLC [1]; [8],56.3%
same,PFS Rate at 8 Weeks (%),Stage IIIb/IV NSCLC [1]; [8],67.7%
same,PFS Rate at 14 Weeks (%),Stage IIIb/IV NSCLC [1]; [8],33.9%
same,PFS Rate at 26 Weeks (%),Stage IIIb/IV NSCLC [1]; [8],20.3%
same,"Progression-Free Survival, time to event, Median",Stage IIIb/IV NSCLC [1]; [8],3.0 months
same,"Subjects (%) with events, OS",Stage IIIb/IV NSCLC [1]; [8],9 (56.3%) subjects (%)
same,"Subjects (%) with events, PFS",Stage IIIb/IV NSCLC [1]; [8],12 (75.0%) subjects (%)
same,OS Rate at 1 Year (%),Stage IIIb/IV NSCLC [1]; [9],22.2%
same,OS Rate at 6 Months (%),Stage IIIb/IV NSCLC [1]; [9],50.7%
same,OS Rate at 9 Months (%),Stage IIIb/IV NSCLC [1]; [9],44.3%
same,PFS Rate at 8 Weeks (%),Stage IIIb/IV NSCLC [1]; [9],56.3%
same,PFS Rate at 14 Weeks (%),Stage IIIb/IV NSCLC [1]; [9],50.0%
same,PFS Rate at 26 Weeks (%),Stage IIIb/IV NSCLC [1]; [9],15.6%
same,"Progression-Free Survival, time to event, Median",Stage IIIb/IV NSCLC [1]; [9],3.4 months
same,"Subjects (%) with events, OS",Stage IIIb/IV NSCLC [1]; [9],12 (70.6%) subjects (%)
same,"Subjects (%) with events, PFS",Stage IIIb/IV NSCLC [1]; [9],13 (76.5%) subjects (%)
same,OS Rate at 1 Year (%),Stage IIIb/IV NSCLC [1]; [10],35.8%
same,OS Rate at 6 Months (%),Stage IIIb/IV NSCLC [1]; [10],59.6%
same,OS Rate at 9 Months (%),Stage IIIb/IV NSCLC [1]; [10],50.2%
same,PFS Rate at 8 Weeks (%),Stage IIIb/IV NSCLC [1]; [10],62.1%
same,PFS Rate at 14 Weeks (%),Stage IIIb/IV NSCLC [1]; [10],42.5%
same,PFS Rate at 26 Weeks (%),Stage IIIb/IV NSCLC [1]; [10],18.4%
same,"Progression-Free Survival, time to event, Median",Stage IIIb/IV NSCLC [1]; [10],3.0 months
same,"Subjects (%) with events, OS",Stage IIIb/IV NSCLC [1]; [10],21 (63.6%) subjects (%)
same,"Subjects (%) with events, PFS",Stage IIIb/IV NSCLC [1]; [10],25 (75.8%) subjects (%)
same,"Overall Survival, time to event, Median","Stage IIIb/IV NSCLC [1]; HRG high (dCt<3.9), preliminary, 9 mg/kg patritumab + erlotinib",10.6 months
same,"Overall Survival, time to event, Median","Stage IIIb/IV NSCLC [1]; HRG high (dCt<3.9), preliminary, 18 mg/kg patritumab + erlotinib",6.1 months
same,"Overall Survival, time to event, Median","Stage IIIb/IV NSCLC [1]; HRG high (dCt<3.9), preliminary, patritumab doses combined + erlotinib",9.7 months
same,"Progression-Free Survival, time to event, Median",Stage IIIb/IV NSCLC [1]; [11],2.8 months
same,"Subjects (%) with events, PFS",Stage IIIb/IV NSCLC [1]; [11],6 ( 85.7%) subjects (%)
same,"Progression-Free Survival, time to event, Median",Stage IIIb/IV NSCLC [1]; [12],2.8 months
same,"Subjects (%) with events, PFS",Stage IIIb/IV NSCLC [1]; [12],5 (100.0%) subjects (%)
same,"Progression-Free Survival, time to event, Median",Stage IIIb/IV NSCLC [1]; [13],2.8 months
same,"Subjects (%) with events, PFS",Stage IIIb/IV NSCLC [1]; [13],11 (91.7%) subjects (%)
same,disease control rate,Stage IIIb/IV NSCLC [1]; 9 mg/kg patritumab plus erlotinib,62.5%
same,disease control rate,Stage IIIb/IV NSCLC [1]; 18 mg/kg patritumab plus erlotinib,52.9%
same,objective response (CR or PR),Stage IIIb/IV NSCLC [1]; high-dose patritumab + erlotinib,No subject
same,objective response (CR or PR),Stage IIIb/IV NSCLC [1]; low-dose patritumab + erlotinib,4 (25.0%) subjects (%)
same,"Overall Survival, time to event, Median",Stage IIIb/IV NSCLC [1]; [14],6.3 months
same,"Progression-Free Survival, time to event, Median",Stage IIIb/IV NSCLC [1]; [14],2.1 months
same,"Subjects (%) with events, OS",Stage IIIb/IV NSCLC [1]; [14],10 ( 66.7%) subjects (%)
same,"Subjects (%) with events, PFS",Stage IIIb/IV NSCLC [1]; [14],12 ( 80.0%) subjects (%)
same,"Overall Survival, time to event, Median",Stage IIIb/IV NSCLC [1]; [15],9.6 months
same,"Progression-Free Survival, time to event, Median",Stage IIIb/IV NSCLC [1]; [15],1.4 months
same,"Subjects (%) with events, OS",Stage IIIb/IV NSCLC [1]; [15],12 ( 63.2%) subjects (%)
same,"Subjects (%) with events, PFS",Stage IIIb/IV NSCLC [1]; [15],13 ( 68.4%) subjects (%)
same,"Overall Survival, time to event, Median",Stage IIIb/IV NSCLC [1]; [16],9.3 months
same,"Progression-Free Survival, time to event, Median",Stage IIIb/IV NSCLC [1]; [16],1.9 months
same,"Subjects (%) with events, OS",Stage IIIb/IV NSCLC [1]; [16],22 ( 64.7%) subjects (%)
same,"Subjects (%) with events, PFS",Stage IIIb/IV NSCLC [1]; [16],25 ( 73.5%) subjects (%)
same,improvement in PFS or OS as compared to erlotinib plus placebo,Stage IIIb/IV NSCLC [1]; full analysis set,no significant improvement in PFS or OS
same,treatment difference in PFS and OS,Stage IIIb/IV NSCLC [1]; subjects with tumors expressing low levels of HRG (dCt>3.9),no clear treatment difference in PFS and OS
same,response,"Stage IIIb/IV NSCLC [2]; Phase 1b, 7 subjects",No response was recorded
same,grade of reported AEs,Stage IIIb/IV NSCLC [2]; in vivo,Most reported AEs were grade 1 or 2
same,patritumab-related AE: decreased appetite,Stage IIIb/IV NSCLC [2]; in vivo,2 subjects
same,serious AEs,Stage IIIb/IV NSCLC [2]; in vivo,Three subjects had four serious AEs
